Target: CREBBP (Homo sapiens (Human), UniProt Q92793)
Assay: In vitro enzyme inhibition assay - CREBBP inhibition (AlphaScreen, biotinylated H4-tetraacetyl peptide)
Assay type: binding
Settings: Table 28; AlphaScreen, H4-tetraacetyl peptide
Summary of the method: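 Displacement of 20 nM biotinylated tetraacetyl-H4 peptide from 50 nM E. coli-expressed His-CREBBP, measured by AlphaScreen after bead equilibration for 2 h.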

CREBBP, sequence (Q92793 1081-1197): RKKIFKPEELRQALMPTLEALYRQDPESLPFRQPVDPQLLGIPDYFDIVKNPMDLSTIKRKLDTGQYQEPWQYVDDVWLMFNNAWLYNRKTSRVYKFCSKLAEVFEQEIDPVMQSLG

| Structure (SMILES) | IC50 [nM] |
| --- | --- |
| CCS(=O)(=O)Nc1cc(-c2ccc(=O)n(C)c2)nc(-c2ccccc2OC)n1 [Example 199, Ethanesulfonic acid [2-(2-methoxy-phenyl)-6-(1-methyl-6-oxo-1,6-dihydro-pyridin-3-yl)-pyrimidin-4-yl]-amide] | 500 to 5000 |
| CCC[C@@H](C)S(=O)(=O)Nc1cc(-c2ccc(=O)n(C)c2)nc(Oc2c(C)cccc2F)n1 [Example 219, (2R)-Pentane-2-sulfonic acid [2-(2-fluoro-6-methyl-phenoxy)-6-(1-methyl-6-oxo-1,6-dihydro-pyridin-3-yl)-pyrimidin-4-yl]-amide] | < 500 |
| CCCCS(=O)(=O)Nc1cc(-c2cc(C)c(=O)n(C)c2)nc(Oc2c(C)cc(F)cc2Cl)n1 [Example 98, Butane-1-sulfonic acid [2-(2-chloro-4-fluoro-6-methyl-phenoxy)-6-(1,5-dimethyl-6-oxo-1,6-dihydro-pyridin-3-yl)-pyrimidin-4-yl]-amide] | < 500 |
| CCC(C)S(=O)(=O)Nc1cc(-c2ccc(=O)n(C)c2)nc(Oc2c(C)cccc2F)n1 (centres unmarked) [Example 137, Butane-2-sulfonic acid [2-(2-fluoro-6-methyl-phenoxy)-6-(1-methyl-6-oxo-1,6-dihydro-pyridin-3-yl)-pyrimidin-4-yl]-amide] | < 500 |
| CCCS(=O)(=O)Nc1nc(OC(C)C)nc(-c2ccc(=O)n(C)c2)n1 [Example 201, Propane-1-sulfonic acid [4-isopropoxy-6-(1-methyl-6-oxo-1,6-dihydro-pyridin-3-yl)-[1,3,5]triazin-2-yl]-amide] | 500 to 5000 |
| CCC[C@@H](C)S(=O)(=O)Nc1cc(-c2ccc(=O)n(C)c2)nc(Oc2c(F)cccc2Cl)n1 [Example 220, (2R)-Pentane-2-sulfonic acid [2-(2-chloro-6-fluoro-phenoxy)-6-(1-methyl-6-oxo-1,6-dihydro-pyridin-3-yl)-pyrimidin-4-yl]-amide] | < 500 |
| CCCCS(=O)(=O)Nc1cc(-c2cc(C)c(=O)n(C)c2)nc(Oc2cc(C(C)C)ccc2Cl)n1 [Example 38, Butane-1-sulfonic acid [2-(2-chloro-5-isopropyl-phenoxy)-6-(1,5-dimethyl-6-oxo-1,6-dihydro-pyridin-3-yl)-pyrimidin-4-yl]-amide] | < 500 |
| Cc1cccc(F)c1Oc1nc(N[C@H](C)c2ccccc2)cc(-c2ccc(=O)n(C)c2)n1 [Example 306, (R)-5-[2-(2-Fluoro-6-methyl-phenoxy)-6-(1-phenyl-ethylamino)-pyrimidin-4-yl]-1-methyl-1H-pyridin-2-one] | < 500 |
| Cc1cccc(Cl)c1Oc1nc(-c2cc(C)c(=O)n(C)c2)cc(S(C)(=O)=O)n1 [Example 133, 5-[2-(2-Chloro-6-methyl-phenoxy)-6-methanesulfonyl-pyrimidin-4-yl]-1,3-dimethyl-1H-pyridin-2-one] | < 500 |
| Cc1cc(-c2cc(N(C)S(=O)(=O)C(C)C)nc(Oc3ccc(F)cc3F)n2)cn(C)c1=O [Example 73, N-(2-(2,4-difluorophenoxy)-6-(1,5-dimethyl-6-oxo-1,6-dihydropyridin-3-yl)pyrimidin-4-yl)-N-methylpropane-2-sulfonamide] | < 500 |
| CCc1ccc(C(C)Nc2cc(-c3ccc(=O)n(C)c3)nc(Oc3c(C)cccc3F)n2)cc1 (centres unmarked) [Example 279, 5-(6-((1-(4-ethylphenyl)ethyl)amino)-2-(2-fluoro-6-methylphenoxy)pyrimidin-4-yl)-1-methylpyridin-2(1H)-one] | < 500 |
| Cc1cc(F)cc(Cl)c1Oc1nc(NS(=O)(=O)C(C)C)cc(-c2cc(C)c(=O)n(C)c2)n1 [Example 100, Propane-2-sulfonic acid [2-(2-chloro-4-fluoro-6-methyl-phenoxy)-6-(1,5-dimethyl-6-oxo-1,6-dihydro-pyridin-3-yl)-pyrimidin-4-yl]-amide] | < 500 |
| Cc1ccc(C)c(Oc2nc(NS(=O)(=O)C(C)C)cc(-c3cc(C)c(=O)n(C)c3)n2)c1 [Example 2, Propane-2-sulfonic acid [6-(1,5-dimethyl-6-oxo-1,6-dihydro-pyridin-3-yl)-2-(2,5-dimethyl-phenoxy)-pyrimidin-4-yl]-amide] | < 500 |
| CCCS(=O)(=O)Nc1cc(-c2ccc(=O)n(C)c2)nc(Oc2c(F)cccc2Cl)n1 [Example 143, Propane-1-sulfonic acid [2-(2-chloro-6-fluoro-phenoxy)-6-(1-methyl-6-oxo-1,6-dihydro-pyridin-3-yl)-pyrimidin-4-yl]-amdie] | < 500 |
| COc1cccc(F)c1Oc1nc(NS(=O)(=O)C(C)C)cc(-c2ccc(=O)n(C)c2)n1 [Example 234, Propane-2-sulfonic acid [2-(2-fluoro-6-methoxy-phenoxy)-6-(1-methyl-6-oxo-1,6-dihydro-pyridin-3-yl)-pyrimidin-4-yl]-amide] | < 500 |
| Cc1cc(F)cc(F)c1Oc1nc(NS(=O)(=O)C(C)C)cc(-c2ccc(=O)n(C)c2)n1 [Example 346, N-(2-(2,4-difluoro-6-methylphenoxy)-6-(1-methyl-6-oxo-1,6-dihydropyridin-3-yl)pyrimidin-4-yl)propane-2-sulfonamide] | < 500 |

| Structure (SMILES) | IC50 [nM] |
| --- | --- |
| Cn1cc(-c2cc(NCc3ccccc3)nc(Oc3ccc(F)cc3F)n2)ccc1=O [Example 274, 5-(6-(benzylamino)-2-(2,4-difluorophenoxy)pyrimidin-4-yl)-1-methylpyridin-2(1H)-one] | < 500 |
| Cc1cc(-c2cc(NS(=O)(=O)C(C)C)nc(Oc3ccccc3)n2)cn(C)c1=O [Example 69, N-(6-(1,5-dimethyl-6-oxo 1,6-dihydropyridin-3-yl)-2-phenoxypyrimidin-4-yl)propane-2-sulfonamide] | < 500 |
| Cn1cc(-c2cc(NS(=O)(=O)CCC3CC3)nc(Oc3c(F)cccc3Cl)n2)ccc1=O [Example 268, 2-Cyclopropyl-ethanesulfonic acid [2-(2-chloro-6-fluoro-phenoxy)-6-(1-methyl-6-oxo-1,6-dihydro-pyridin-3-yl)-pyrimidin-4-yl]-amide] | < 500 |
| CCC[C@@H](C)S(=O)(=O)Nc1cc(-c2ccc(=O)n(C)c2)nc(Oc2c(C)cccc2Cl)n1 [Example 221, (2R)-Pentane-2-sulfonic acid [2-(2-chloro-6-methyl-phenoxy)-6-(1-methyl-6-oxo-1,6-dihydro-pyridin-3-yl)-pyrimidin-4-yl]-amide] | < 500 |
| COc1nc(NCC2CCCc3ccccc32)cc(-c2ccc(=O)n(C)c2)n1 (centres unmarked) [Example 331, 5-{2-Methoxy-6-[(1,2,3,4-tetrahydro-naphthalen-1-ylmethyl)-amino]-pyrimidin-4-yl}-1-methyl-1H-pyridin-2-one] | < 500 |
| Cc1ccc(Cl)c(Oc2nc(NS(=O)(=O)C(C)C)cc(-c3cc(C)c(=O)n(C)c3)n2)c1 [Example 5, Propane-2-sulfonic acid [2-(2-chloro-5-methyl-phenoxy)-6-(1,5-dimethyl-6-oxo-1,6-dihydro-pyridin-3-yl)-pyrimidin-4-yl]-amide] | < 500 |
| CC[C@H](C)S(=O)(=O)Nc1cc(-c2ccc(=O)n(C)c2)nc(Oc2c(Cl)ccc(C)c2F)n1 [Example 226, (S)-Butane-2-sulfonic acid [2-(6-chloro-2-fluoro-3-methyl-phenoxy)-6-(1-methyl-6-oxo-1,6-dihydro-pyridin-3-yl)-pyrimidin-4-yl]-amide] | < 500 |
| CCCCS(=O)(=O)Nc1cc(-c2ccc(=O)n(C)c2)nc(Oc2c(C)cc(F)cc2F)n1 [Example 343, N-(2-(2,4-difluoro-6-methylphenoxy)-6-(1-methyl-6-oxo-1,6-dihydropyridin-3-yl)pyrimidin-4-yl)butane-1-sulfonamide] | < 500 |
| Cc1cccc(C#N)c1Oc1nc(NS(=O)(=O)CCCC(F)(F)F)cc(-c2ccc(=O)n(C)c2)n1 [Example 150, N-(2-(2-cyano-6-methylphenoxy)-6-(1-methyl-6-oxo-1,6-dihdyropyridin-3-yl)pyrimidin-4-yl)-4,4,4-trifluorobutane-1-sulfonamide] | < 500 |
| CCCS(=O)(=O)Nc1nc(Oc2c(C)cccc2C)nc(-c2cc(C)c(=O)n(C)c2)n1 [Example 154, Propane-1-sulfonic acid [4-(1,5-dimethyl-6-oxo-1,6-dihydro-pyridin-3-yl)-6-(2,6-dimethyl-phenoxy)-[1,3,5]triazin-2-yl]-amide] | < 500 |
| CC(C)S(=O)(=O)Nc1cc(-c2ccc(=O)n(C)c2)nc(Oc2c(F)cccc2F)n1 [Example 340, N-(2-(2,6-difluorophenoxy)-6-(1-methyl-6-oxo-1,6-dihydropyridin-3-yl)pyrimidin-4-yl)propane-2-sulfonamide] | < 500 |
| CCCCC(=O)Nc1cc(-c2cc(C)c(=O)n(C)c2)nc(Oc2ccc(F)cc2F)n1 [Example 79, N-(2-(2,4-difluorophenoxy)-6-(1,5-dimethyl-6-oxo-1,6-dihydropyridin-3-yl)pyrimidin-4-yl)pentanamide] | < 500 |
| CCCCS(=O)(=O)Nc1cc(-c2cc(C)c(=O)n(C)c2)nc(Oc2c(F)cccc2Cl)n1 [Example 138, Butane-1-sulfonic acid [2-(2-chloro-6-fluoro-phenoxy)-6-(1,5-dimethyl-6-oxo-1,6-dihydro-pyridin-3-yl)-pyrimidin-4-yl]-amide] | < 500 |
| CCS(=O)(=O)Nc1nc(OC(C)C)nc(-c2ccc(=O)n(C)c2)n1 [Example 200, Ethanesulfonic acid [4-isopropoxy-6-(1-methyl-6-oxo-1,6-dihydro-pyridin-3-yl)-[1,3,5]triazin-2-yl]-amide] | 500 to 5000 |
| CCS(=O)(=O)Nc1cc(-c2cc(C)c(=O)n(C)c2)nc(OC(C)C)n1 [Example 140, Ethanesulfonic acid [6-(1,5-dimethyl-6-oxo-1,6-dihydro-pyridin-3-yl)-2-isopropoxy-pyrimidin-4-yl]-amide] | < 500 |
| CCCC(C)S(=O)(=O)Nc1cc(-c2ccc(=O)n(C)c2)nc(Oc2c(F)cccc2Cl)n1 (centres unmarked) [Example 242, Pentane-2-sulfonic acid [2-(2-chloro-6-fluoro-phenoxy)-6-(1-methyl-6-oxo-1,6-dihydro-pyridin-3-yl)-pyrimidin-4-yl]-amide] | < 500 |

— patent publication US10202360B2 (CELGENE QUANTICEL RESEARCH, INC., priority 2016, dated 2019)
